Measured values: ChEMBL document CHEMBL1201862, “PubChem BioAssay data set” (2004)
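Test compounds were applied to cells in 96-well plates for 48 hours at 5 doses. At the GI50, growth is halved.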 Calls of active or inactive are those of the source. Cut-off read from the data, not from the text of the source: active = GI50 up to about 1.1 µM and inactive = higher. Square brackets hold non-standard residues; d marks the D form. Peptide text beside a SMILES is read from it. ξ: configuration not given here. ξ2Thi = NC(Cc1cccs1)C(=O)O; ξR = N=C(N)NCCCC(N)C(=O)O; ξI = CCC(C)C(N)C(=O)O; ξL = CC(C)CC(N)C(=O)O; ξK = NCCCCC(N)C(=O)O; ξT = CC(O)C(N)C(=O)O; ξA = CC(N)C(=O)O

Experiments:
Assay in all cases: inhibition of tumour cell growth, NCI panel, 48 h
U-251 = system: U-251
OVCAR-3 = system: OVCAR-3
NCI-H522 = system: NCI-H522
UO-31 = system: UO-31
DU-145 = system: DU-145
HOP-92 = system: HOP-92
MDA-N = system: MDA-N
SNB-75 = system: SNB-75
SK-MEL-28 = system: SK-MEL-28
OVCAR-4 = system: OVCAR-4
OVCAR-5 = system: OVCAR-5
HCC 2998 = system: HCC 2998
A498 = system: A498
OVCAR-8 = system: OVCAR-8
IGROV-1 = system: IGROV-1
UACC-62 = system: UACC-62
K562 = system: K562
KM12 = system: KM12
NCI-H23 = system: NCI-H23
M14 = system: M14
ACHN = system: ACHN
SF-295 = system: SF-295
NCI-H226 = system: NCI-H226
786-0 = system: 786-0
RXF 393 = system: RXF 393
PC-3 = system: PC-3
HCT-116 = system: HCT-116
NCI-H460 = system: NCI-H460
SNB-19 = system: SNB-19
SK-MEL-2 = system: SK-MEL-2
TK-10 = system: TK-10
BT-549 = system: BT-549
HOP-62 = system: HOP-62
MDA-MB-435 = system: MDA-MB-435
SR = system: SR
Malme-3M = system: Malme-3M
A549 = system: A549
HT-29 = system: HT-29
SW-620 = system: SW-620
LOX IMVI = system: LOX IMVI
SF-268 = system: SF-268
SK-MEL-5 = system: SK-MEL-5
NCI/ADR-RES = system: NCI/ADR-RES
EKVX = system: EKVX
SN12C = system: SN12C
MCF7 = system: MCF7
MOLT-4 = system: MOLT-4
CAKI-1 = system: CAKI-1
Hs-578T = system: Hs-578T
HCT-15 = system: HCT-15
UACC-257 = system: UACC-257
T47D = system: T47D
MDA-MB-231 = system: MDA-MB-231
CCRF-CEM = system: CCRF-CEM
SF-539 = system: SF-539
COLO 205 = system: COLO 205
RPMI-8226 = system: RPMI-8226
SK-OV-3 = system: SK-OV-3

Measured: GI50

O=[As](O)(O)c1ccc2nc3cc([As](=O)(O)O)ccc3nc2c1
> 100 µM: HCT-15
inactive: U-251 > 100 µM | OVCAR-3 > 100 µM | NCI-H522 > 100 µM | UO-31 > 100 µM | DU-145 > 100 µM | HOP-92 > 100 µM | MDA-N > 100 µM | SNB-75 > 100 µM | SK-MEL-28 > 100 µM | OVCAR-4 > 100 µM | OVCAR-5 > 100 µM | HCC 2998 > 100 µM | A498 > 100 µM | OVCAR-8 > 100 µM | IGROV-1 > 100 µM | UACC-62 > 100 µM | K562 > 100 µM | KM12 > 100 µM | NCI-H23 > 100 µM | M14 > 100 µM | ACHN > 100 µM | SF-295 > 100 µM | NCI-H226 > 100 µM | 786-0 > 100 µM | RXF 393 > 100 µM | PC-3 > 100 µM | HCT-116 > 100 µM | NCI-H460 > 100 µM | SNB-19 > 100 µM | SK-MEL-2 > 100 µM | TK-10 > 100 µM | BT-549 > 100 µM | HOP-62 > 100 µM | MDA-MB-435 > 100 µM | SR > 100 µM | Malme-3M > 100 µM | A549 > 100 µM | HT-29 > 100 µM | SW-620 > 100 µM | LOX IMVI > 100 µM | SF-268 > 100 µM | SK-MEL-5 > 100 µM | NCI/ADR-RES > 100 µM | EKVX > 100 µM | SN12C > 100 µM | MCF7 > 100 µM | MOLT-4 > 100 µM | CAKI-1 > 100 µM | Hs-578T > 100 µM | UACC-257 > 100 µM | T47D > 100 µM | MDA-MB-231 > 100 µM

C[C@@H]1CCC2[C@@H](C)C(=O)O[C@@H]3C4C[C@@H]1[C@@]23OO[C@@]4(C)O (some centres undefined)
inactive: U-251 48.8 µM | OVCAR-3 > 100 µM | NCI-H522 40.8 µM | UO-31 27.9 µM | DU-145 71.4 µM | HOP-92 > 100 µM | MDA-N 55.3 µM | CCRF-CEM 54.5 µM | SNB-75 75.5 µM | SK-MEL-28 > 100 µM | OVCAR-4 > 100 µM | OVCAR-5 > 100 µM | HCC 2998 > 100 µM | A498 > 100 µM | OVCAR-8 82.8 µM | IGROV-1 19.7 µM | UACC-62 > 100 µM | K562 > 100 µM | KM12 > 100 µM | NCI-H23 88.5 µM | M14 > 100 µM | ACHN 58.7 µM | SF-295 > 100 µM | 786-0 > 100 µM | RXF 393 60.3 µM | PC-3 > 100 µM | HCT-116 88.3 µM | NCI-H460 52 µM | SNB-19 > 100 µM | SK-MEL-2 > 100 µM | TK-10 > 100 µM | BT-549 > 100 µM | SF-539 55.6 µM | HOP-62 48.3 µM | MDA-MB-435 72.6 µM | COLO 205 > 100 µM | RPMI-8226 > 100 µM | SR > 100 µM | Malme-3M > 100 µM | A549 > 100 µM | HT-29 > 100 µM | SW-620 > 100 µM | LOX IMVI 23.1 µM | SF-268 76 µM | SK-MEL-5 2.81 µM | NCI/ADR-RES > 100 µM | EKVX 57.7 µM | SN12C > 100 µM | MCF7 62.8 µM | MOLT-4 72.1 µM | CAKI-1 > 100 µM | Hs-578T > 100 µM | UACC-257 > 100 µM | T47D 87.3 µM | MDA-MB-231 > 100 µM
> 100 µM: HCT-15

CCC(C)C(NC(=O)C(Cc1cccs1)NC(=O)C(CC(C)C)NC(=O)C(CC(C)C)NC(=O)C(CCCCN)NC(=O)C(CCCN=C(N)N)NC(=O)[C@H](Cc1ccc(O)cc1)NC(=O)C(NC(=O)C(C)NC(=O)C(N)CC(C)C)C(C)O)C(=O)NC(CC(C)C)C(N)=O (some centres undefined) (H-[ξL][ξA][ξT]Y[ξR][ξK][ξL][ξL][ξ2Thi][ξI][ξL]-NH2)
> 50 µM: HCT-15
inactive: U-251 > 50 µM | OVCAR-3 > 50 µM | NCI-H522 > 50 µM | UO-31 > 50 µM | DU-145 > 50 µM | MDA-N > 50 µM | CCRF-CEM > 50 µM | SNB-75 > 50 µM | SK-MEL-28 > 50 µM | OVCAR-4 > 50 µM | OVCAR-5 > 50 µM | HCC 2998 > 50 µM | A498 > 50 µM | OVCAR-8 > 50 µM | UACC-62 > 50 µM | K562 > 50 µM | KM12 > 50 µM | NCI-H23 > 50 µM | M14 > 50 µM | ACHN > 50 µM | SF-295 > 50 µM | NCI-H226 > 50 µM | 786-0 > 50 µM | SK-OV-3 > 50 µM | RXF 393 > 50 µM | PC-3 > 50 µM | HCT-116 > 50 µM | NCI-H460 > 50 µM | SNB-19 > 50 µM | TK-10 > 50 µM | BT-549 > 50 µM | SF-539 > 50 µM | HOP-62 > 50 µM | MDA-MB-435 > 50 µM | COLO 205 > 50 µM | RPMI-8226 > 50 µM | SR > 50 µM | Malme-3M > 50 µM | A549 > 50 µM | HT-29 > 50 µM | SW-620 > 50 µM | LOX IMVI > 50 µM | SF-268 > 50 µM | SK-MEL-5 > 50 µM | NCI/ADR-RES > 50 µM | EKVX > 50 µM | SN12C > 50 µM | MCF7 > 50 µM | MOLT-4 > 50 µM | CAKI-1 > 50 µM | Hs-578T > 50 µM | UACC-257 > 50 µM | T47D > 50 µM | MDA-MB-231 > 50 µM
